# Results as given in patent publication US9422254B2, “Methoxyacrylate-based fungicide and methods for preparing and using the same” (priority 2008, dated 2016).
# Several values for one entry are separate records, joined by “and”; a condition that tells them apart may be missing. Equal entries are not always repeated.
# Assays:
# cucumber powdery mildew = assay: Field efficacy trial of emulsifier concentrate 1, cucumber powdery mildew; assay type: in vivo
# Protocol: To a beaker (1000 mL), 50 g (100% basis) of the compound of Formula (I), 150 g of DMF, and 50 g of acetone were added and stirred for dissolution. To the solution, 25 g of pesticide emulsifier No. 500 and 50 g of Tween 80, 20 g of epoxidized soybean oil, and […] of toluene were added. Thus, the emulsifier concentrate 1 having 5 wt. % of the compound of Formula (I) was obtained and further packed.
# On the basis of indoor activity evaluation, field efficacy trials of the compound of Formula (I) on cucumber downy mildew, cucumber powdery mildew, and melon powdery mildew were conducted.
# bee = assay: Acute contact toxicity test on bee; assay type: in vivo
# Protocol: After acute toxicity and Ames test had been finished, environmental toxicity test was conducted following “Guideline for Environmental Safety Evaluation of Chemical Pesticides” of Agriculture Ministry of China by Shenyang Chemical Research Institute/Supervision and Test Center for Pesticide Safety Evaluation and Quality Control.
# Acute oral test = assay type: in vivo, rat; conditions: in vivo
# Protocol: (§1) The toxicological indexes of the compound were tested following the standard GB15670-1995 “Toxicological test methods of pesticides for registration” by Tongji Medical College, Huazhong University of Science and Technology.
# rat = assay: Acute oral test; assay type: in vivo; conditions: rat
# Protocol: as §1
# [1] = test system: Pseudoperonospora cubensis; assay: Fungicidal activity on potted cucumber, downy mildew; assay type: in vivo
# Protocol: 1. Fungicidal Activity Assay on Potted Plants at Room Temperature
# Take cucumber downy mildew and powdery mildew as examples, the assay were carried out as follows:
# 1) Pseudoperonospora cubensis: Pathogen of Cucumber Downy Mildew
# Two cucumber seedlings (the growing point had been removed) having the same growth status and in the true leaf stage were collected, sprayed with the compound of Formula (I), and dried naturally for 24 hrs for inoculation. Fresh cucumber leaves infected by downy mildew were collected, and sporangium on the back was rinsed with distilled water (about 10° C.) dipped with a brush. The obtained sporangium was prepared into a suspension (2-3×10^5 cells/mL). The suspension was sprayed uniformly with an inoculation sprayer (0.1 MPa) to the naturally-dried cucumber seedlings. Subsequently, the seedlings were cultured in an artificial climate chamber. The relative humidity was maintained at 100%, with temperature of between 15 and 20° C. 24 hrs later, the relative humidity was maintained at 90%, with temperature of between 15 and 24° C. 5 days later, compared with the control, the disease of the cucumber seedlings was graded. Based on the resultant disease index, the efficacy was calculated.
# The grading standard follows “Guidelines on efficacy evaluation of pesticides”, and the efficacy is calculated on the basis of the disease index.
# Helminthosporum maydis = assay: organism not typed; assay type: cell-based
# [2] = test system: Colletotrichum lagenarium; assay: microbe, parasite or virus in culture; assay type: cell-based; conditions: Colletotrichum orbiculare, read-out: Inhibition rate (%)
# Alternaria alternata = assay: microbe, parasite or virus in culture; assay type: cell-based; conditions: read-out: Inhibition rate (%)
# Botrytis cinerea = assay: microbe, parasite or virus in culture; assay type: cell-based; conditions: read-out: Inhibition rate (%)
# [3] = molecular target: succinate-cytochrome C oxidase (SCO) (Sus scrofa, UniProt P24964); assay: Enzyme activity test, SCO; assay type: biochemical; conditions: azoxystrobin as control agent
# Protocol: Take NADH oxidase (NOX), succinate-cytochrome C oxidase (SCO), and Complex III as target enzymes, the inhibitory activity of the compound of Formula (I) was tested.
# ^a NOX is generally used to detect an inhibitor of Complex I and Complex III; SCO is generally used to detect an inhibitor of Complex II and Complex III. Thus, an inhibitor of Complex III should have inhibitory activity on the two enzymes.
# [4] = test system: Cucumber scab (strain HX); assay: In vivo micro-screening assay
# Protocol: In Vivo Micro-Screening Assay
# To further study the fungicidal spectrum of the compound of Formula (I), indoor in vivo micro-screening assay were carried out on cucumber gray mold, cucumber scab, cucumber sclerotinia rot, cucumber brown spot, pepper phytophthora blight, and rice sheath blight.
# Cucumber scab strain: HX; cucumber brown spot strain: SDHGHB060509; cucumber sclerotinia rot strain: HGJH; pepper phytophthora blight strain: NSGP; and rice sheath blight strain: WK-1.
# Medicament to be tested and medicament of control groups were prepared as needed in a sunny morning. Cucumber gray mold, cucumber scab, cucumber brown spot, cucumber sclerotinia rot, and rice sheath blight were medicated by spray, and after air dry, pathogens of cucumber scab and of cucumber brown spot were inoculated through spraying spore suspension respectively, pathogens of cucumber gray mold, of cucumber sclerotinia rot, and of rice sheath blight were inoculated through lawn foliage. Pepper phytophthora blight was medicated and inoculated by root-irrigation. Subsequently, all seedlings were cultured in wet environment.
# After the disease of control groups were serious, spot area, disease index, and the diseased seedling rate were investigated to calculate the efficacy. Cucumber scab, cucumber brown spot, and pepper phytophthora blight were investigated by grading method. The spot extension area of cucumber gray mold and of rice sheath blight was investigated. The diseased seedling rate of cucumber sclerotinia rot was investigated. Disease index=Σ(amount of infected diseased leaves in a grade×relative value of the grade)×100/(total amount of leaves×9); Diseased seedling rate (%)=(total amount of seedlings−amount of diseased seedlings)/total amount of seedlings×100% Prevention and treatment effect (%)=(disease of control group−disease of experiment group)/disease of control group×100%
# [5] = Pseudoperonospora cubensis, secondary screening
# Sequence of succinate-cytochrome C oxidase (SCO) (P24964 whole entry): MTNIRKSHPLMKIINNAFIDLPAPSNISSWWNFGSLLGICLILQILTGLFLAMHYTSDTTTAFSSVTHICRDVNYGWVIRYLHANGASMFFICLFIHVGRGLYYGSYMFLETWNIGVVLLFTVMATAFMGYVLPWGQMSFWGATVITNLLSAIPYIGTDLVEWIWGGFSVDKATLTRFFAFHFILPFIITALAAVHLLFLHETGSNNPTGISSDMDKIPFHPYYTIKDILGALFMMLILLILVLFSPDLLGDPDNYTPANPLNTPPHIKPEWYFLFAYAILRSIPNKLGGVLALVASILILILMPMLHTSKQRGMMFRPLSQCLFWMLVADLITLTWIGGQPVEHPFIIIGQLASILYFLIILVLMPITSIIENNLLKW
compound,measurement,setting,value
"CO/C=C(/C(=O)OC)c1ccccc1CSc1nc2cc(OC)ccc2s1 [Compound of Formula (I), (E)-methyl 3-methoxy-2-(2-((5-methoxy-benzothiazol-2-ylthio)methyl)phenyl)acrylate]",Disease index (%),"cucumber powdery mildew; 12.5 mg/L, 7th day, Average",5.9%
same,Efficacy (%),"cucumber powdery mildew; 12.5 mg/L, 7th day, Average",70.50%
same,Disease index (%),"cucumber powdery mildew; 12.5 mg/L, 7th day, No. 1-4",5.5% and 6.7% and 5.8%
same,Efficacy (%),"cucumber powdery mildew; 12.5 mg/L, 7th day, No. 1-4",71.05% and 70.59% and 71.54% and 69.71%
same,Disease index (%),"cucumber powdery mildew; 12.5 mg/L, 14th day, Average",6.8%
same,Efficacy (%),"cucumber powdery mildew; 12.5 mg/L, 14th day, Average",75.66%
same,Disease index (%),"cucumber powdery mildew; 12.5 mg/L, 14th day, No. 1-4",6.4% and 6.3% and 7.8% and 6.6%
same,Efficacy (%),"cucumber powdery mildew; 12.5 mg/L, 14th day, No. 1-4",74.80% and 76.40% and 75.73% and 76.45%
same,Disease index (%),"cucumber powdery mildew; 12.5 mg/L, 21st day, Average",12.7%
same,Efficacy (%),"cucumber powdery mildew; 12.5 mg/L, 21st day, Average",68.91%
same,Disease index (%),"cucumber powdery mildew; 12.5 mg/L, 21st day, No. 1-4",12.6% and 12.0% and 13.9% and 12.3%
same,Efficacy (%),"cucumber powdery mildew; 12.5 mg/L, 21st day, No. 1-4",67.88% and 68.34% and 69.40% and 70.29%
same,Disease index (%),"cucumber powdery mildew; 25 mg/L, 7th day, Average",3.9%
same,Efficacy (%),"cucumber powdery mildew; 25 mg/L, 7th day, Average",77.54%
same,Disease index (%),"cucumber powdery mildew; 25 mg/L, 7th day, No. 1-4",3.6% and 4.2% and 4.6% and 3.3%
same,Efficacy (%),"cucumber powdery mildew; 25 mg/L, 7th day, No. 1-4",78.48% and 76.74% and 77.57% and 77.35%
same,Disease index (%),"cucumber powdery mildew; 25 mg/L, 14th day, Average",4.0%
same,Efficacy (%),"cucumber powdery mildew; 25 mg/L, 14th day, Average",83.51%
same,Disease index (%),"cucumber powdery mildew; 25 mg/L, 14th day, No. 1-4",3.5% and 4.2% and 4.8%
same,Efficacy (%),"cucumber powdery mildew; 25 mg/L, 14th day, No. 1-4",84.35% and 83.71% and 82.85% and 83.59%
same,Disease index (%),"cucumber powdery mildew; 25 mg/L, 21st day, Average",7.0%
same,Efficacy (%),"cucumber powdery mildew; 25 mg/L, 21st day, Average",77.78%
same,Disease index (%),"cucumber powdery mildew; 25 mg/L, 21st day, No. 1-4",6.8% and 8.0% and 6.2%
same,Disease index (%),"cucumber powdery mildew; 50 mg/L, 7th day, Average",2.4%
same,Efficacy (%),"cucumber powdery mildew; 50 mg/L, 7th day, Average",85.63%
same,Disease index (%),"cucumber powdery mildew; 50 mg/L, 7th day, No. 1-4",2.1% and 2.4% and 2.8% and 2.2%
same,Efficacy (%),"cucumber powdery mildew; 50 mg/L, 7th day, No. 1-4",85.88% and 84.49% and 86.18% and 85.31%
same,Disease index (%),"cucumber powdery mildew; 50 mg/L, 14th day, Average",2.1%
same,Efficacy (%),"cucumber powdery mildew; 50 mg/L, 14th day, Average",90.99%
same,Disease index (%),"cucumber powdery mildew; 50 mg/L, 14th day, No. 1-4",2.1% and 1.8% and 2.7% and 1.9%
same,Efficacy (%),"cucumber powdery mildew; 50 mg/L, 14th day, No. 1-4",89.44% and 91.85% and 90.23% and 91.34%
same,Disease index (%),"cucumber powdery mildew; 50 mg/L, 21st day, Average",3.6%
same,Efficacy (%),"cucumber powdery mildew; 50 mg/L, 21st day, Average",89.45%
same,Disease index (%),"cucumber powdery mildew; 50 mg/L, 21st day, No. 1-4",3.2% and 3.0% and 4.4% and 3.7%
same,Efficacy (%),"cucumber powdery mildew; 50 mg/L, 21st day, No. 1-4",89.57% and 90.44% and 88.74% and 88.58%
same,Disease index (%),"cucumber powdery mildew; 100 mg/L, 7th day, Average",1.5%
same,Efficacy (%),"cucumber powdery mildew; 100 mg/L, 7th day, Average",91.67%
same,Disease index (%),"cucumber powdery mildew; 100 mg/L, 7th day, No. 1-4",1.7% and 1.2% and 1.9%
same,Efficacy (%),"cucumber powdery mildew; 100 mg/L, 7th day, No. 1-4",91.17% and 92.74% and 90.16% and 92.41%
same,Disease index (%),"cucumber powdery mildew; 100 mg/L, 14th day, Average",1.2%
same,Efficacy (%),"cucumber powdery mildew; 100 mg/L, 14th day, Average",95.23%
same,Disease index (%),"cucumber powdery mildew; 100 mg/L, 14th day, No. 1-4",0.9% and 1.3% and 1.4% and 1.0%
same,Efficacy (%),"cucumber powdery mildew; 100 mg/L, 14th day, No. 1-4",96.46% and 94.43% and 95.18% and 95.68%
same,Disease index (%),"cucumber powdery mildew; 100 mg/L, 21st day, Average",2.9%
same,Efficacy (%),"cucumber powdery mildew; 100 mg/L, 21st day, Average",91.52%
same,Disease index (%),"cucumber powdery mildew; 100 mg/L, 21st day, No. 1-4",3.3% and 2.6% and 2.8% and 3.0%
same,Efficacy (%),"cucumber powdery mildew; 100 mg/L, 21st day, No. 1-4",91.58% and 92.15% and 93.17% and 91.23%
same,LC50 (48 hrs),bee,LC50 (48 hrs) > 100 μg a.i./per bee
same,LD50,Acute oral test; Female rat,> 5000 mg/kg
same,LD50,Acute oral test; Male rat,> 5000 mg/kg
same,Toxicity (acute oral test),rat,Low toxicity
same,Efficacy (%),"[1]; 3.125 mg/L, secondary screening",69.92%
same,Efficacy (%),"[1]; 6.25 mg/L, secondary screening",82.89%
same,Efficacy (%),"[1]; 12.5 mg/L, Table 1",87.34%
same,Efficacy (%),"[1]; 12.5 mg/L, secondary screening",91.50%
same,Efficacy (%),"[1]; 25 mg/L, Table 1",94.16%
same,Efficacy (%),"[1]; 25 mg/L, secondary screening",98.15%
same,Efficacy (%),"[1]; 50 mg/L, Table 1",100%
same,Efficacy (%),"[1]; 50 mg/L, secondary screening",100%
same,Efficacy (%),"[1]; 100 mg/L, Table 1",100%
same,Efficacy (%),"[1]; 200 mg/L, Table 1",100%
same,EC50,[1]; [5],1.52 µg/mL
same,EC90,[1]; [5],9.76 µg/mL
same,preventive effect,[1]; downy mildew,good preventive effect
same,in vitro effect,Helminthosporum maydis,particularly effective
same,inhibition at 0.3 µg/mL,"Helminthosporum maydis; 0.3 mg/L, read-out: Inhibition rate (%)",86.1%
same,inhibition at 3 µg/mL,"Helminthosporum maydis; 3 mg/L, read-out: Inhibition rate (%)",100%
same,inhibition at 30 µg/mL,"Helminthosporum maydis; 30 mg/L, read-out: Inhibition rate (%)",100%
same,inhibition at 0.3 µg/mL,[2]; 0.3 mg/L,42%
same,inhibition at 3 µg/mL,[2]; 3 mg/L,44.2%
same,inhibition at 30 µg/mL,[2]; 30 mg/L,50.7%
same,inhibition at 0.3 µg/mL,Alternaria alternata; 0.3 mg/L,37.2%
same,inhibition at 3 µg/mL,Alternaria alternata; 3 mg/L,41.8%
same,inhibition at 30 µg/mL,Alternaria alternata; 30 mg/L,43.1%
same,inhibition at 0.3 µg/mL,Botrytis cinerea; 0.3 mg/L,42.3%
same,inhibition at 3 µg/mL,Botrytis cinerea; 3 mg/L,42.7%
same,inhibition at 30 µg/mL,Botrytis cinerea; 30 mg/L,54.9%
same,inhibitory activity on SCO compared with azoxystrobin,[3],much higher inhibitory activity
same,prevention and treatment effect,[4],good prevention and treatment effect
same,Disease index,[4]; 100 mg/L,0
same,Efficacy (%),[4]; 100 mg/L,100.00%
same,Disease index,[4]; 500 mg/L,0
same,Efficacy (%),[4]; 500 mg/L,100.00%
